From publication PMC7540173 (Chemistry (Weinheim an Der Bergstrasse, Germany), 2020)

How the values were obtained:
human αvβ3 integrin = human αvβ3 integrin (Homo sapiens, UniProt P05106+P06756); assay: ELISA-like solid-phase integrin binding assay
human α5β1 integrin = human α5β1 integrin (Homo sapiens, UniProt P05556+P08648); assay: ELISA-like solid-phase integrin binding assay
Chain of human α5β1 integrin (P08648 42-995 limits assumed): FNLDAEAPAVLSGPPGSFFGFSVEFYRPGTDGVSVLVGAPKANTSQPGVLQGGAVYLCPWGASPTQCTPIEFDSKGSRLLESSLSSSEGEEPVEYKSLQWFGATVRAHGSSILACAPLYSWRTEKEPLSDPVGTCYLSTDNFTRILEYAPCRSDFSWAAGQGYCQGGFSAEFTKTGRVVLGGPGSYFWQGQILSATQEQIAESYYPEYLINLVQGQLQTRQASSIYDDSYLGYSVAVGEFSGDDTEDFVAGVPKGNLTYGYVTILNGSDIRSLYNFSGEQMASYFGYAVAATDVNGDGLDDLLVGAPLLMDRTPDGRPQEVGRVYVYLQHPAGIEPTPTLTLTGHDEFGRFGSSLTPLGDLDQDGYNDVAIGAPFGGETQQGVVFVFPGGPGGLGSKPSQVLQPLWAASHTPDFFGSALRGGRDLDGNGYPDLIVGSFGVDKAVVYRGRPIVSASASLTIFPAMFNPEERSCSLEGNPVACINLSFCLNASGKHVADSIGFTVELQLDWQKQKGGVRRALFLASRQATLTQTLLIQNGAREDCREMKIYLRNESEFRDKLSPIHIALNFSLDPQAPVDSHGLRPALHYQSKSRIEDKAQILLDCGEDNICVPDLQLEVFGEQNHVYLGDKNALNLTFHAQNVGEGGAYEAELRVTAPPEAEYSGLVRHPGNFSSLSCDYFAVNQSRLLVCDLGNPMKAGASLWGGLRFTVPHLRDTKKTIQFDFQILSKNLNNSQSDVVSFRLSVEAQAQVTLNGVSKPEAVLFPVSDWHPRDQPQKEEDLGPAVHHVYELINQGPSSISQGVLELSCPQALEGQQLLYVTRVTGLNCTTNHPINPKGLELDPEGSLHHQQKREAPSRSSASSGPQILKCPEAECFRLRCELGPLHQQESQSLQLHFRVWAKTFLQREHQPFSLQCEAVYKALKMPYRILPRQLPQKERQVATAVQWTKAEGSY
Chain of human α5β1 integrin (P05556 21-728 limits assumed): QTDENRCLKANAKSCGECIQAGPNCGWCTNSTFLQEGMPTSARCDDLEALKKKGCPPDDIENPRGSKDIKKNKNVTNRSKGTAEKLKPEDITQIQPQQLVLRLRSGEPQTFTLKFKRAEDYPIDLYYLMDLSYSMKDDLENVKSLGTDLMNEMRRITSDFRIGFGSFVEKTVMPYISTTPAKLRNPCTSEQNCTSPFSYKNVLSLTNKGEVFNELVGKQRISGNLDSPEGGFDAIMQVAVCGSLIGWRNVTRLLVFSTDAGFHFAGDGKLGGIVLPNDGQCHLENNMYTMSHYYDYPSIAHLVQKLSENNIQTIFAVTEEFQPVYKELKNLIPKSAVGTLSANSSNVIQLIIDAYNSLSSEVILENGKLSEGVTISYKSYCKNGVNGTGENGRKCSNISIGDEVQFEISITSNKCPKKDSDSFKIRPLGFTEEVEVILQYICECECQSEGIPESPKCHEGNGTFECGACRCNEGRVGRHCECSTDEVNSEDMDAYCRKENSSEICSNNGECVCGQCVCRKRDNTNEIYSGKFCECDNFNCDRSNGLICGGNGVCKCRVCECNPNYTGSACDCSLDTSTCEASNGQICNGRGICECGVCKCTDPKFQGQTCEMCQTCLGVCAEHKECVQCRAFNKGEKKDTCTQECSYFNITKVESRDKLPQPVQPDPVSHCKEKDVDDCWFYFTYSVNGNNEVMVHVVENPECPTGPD

Chain of human αvβ3 integrin (P06756 31-992 limits assumed): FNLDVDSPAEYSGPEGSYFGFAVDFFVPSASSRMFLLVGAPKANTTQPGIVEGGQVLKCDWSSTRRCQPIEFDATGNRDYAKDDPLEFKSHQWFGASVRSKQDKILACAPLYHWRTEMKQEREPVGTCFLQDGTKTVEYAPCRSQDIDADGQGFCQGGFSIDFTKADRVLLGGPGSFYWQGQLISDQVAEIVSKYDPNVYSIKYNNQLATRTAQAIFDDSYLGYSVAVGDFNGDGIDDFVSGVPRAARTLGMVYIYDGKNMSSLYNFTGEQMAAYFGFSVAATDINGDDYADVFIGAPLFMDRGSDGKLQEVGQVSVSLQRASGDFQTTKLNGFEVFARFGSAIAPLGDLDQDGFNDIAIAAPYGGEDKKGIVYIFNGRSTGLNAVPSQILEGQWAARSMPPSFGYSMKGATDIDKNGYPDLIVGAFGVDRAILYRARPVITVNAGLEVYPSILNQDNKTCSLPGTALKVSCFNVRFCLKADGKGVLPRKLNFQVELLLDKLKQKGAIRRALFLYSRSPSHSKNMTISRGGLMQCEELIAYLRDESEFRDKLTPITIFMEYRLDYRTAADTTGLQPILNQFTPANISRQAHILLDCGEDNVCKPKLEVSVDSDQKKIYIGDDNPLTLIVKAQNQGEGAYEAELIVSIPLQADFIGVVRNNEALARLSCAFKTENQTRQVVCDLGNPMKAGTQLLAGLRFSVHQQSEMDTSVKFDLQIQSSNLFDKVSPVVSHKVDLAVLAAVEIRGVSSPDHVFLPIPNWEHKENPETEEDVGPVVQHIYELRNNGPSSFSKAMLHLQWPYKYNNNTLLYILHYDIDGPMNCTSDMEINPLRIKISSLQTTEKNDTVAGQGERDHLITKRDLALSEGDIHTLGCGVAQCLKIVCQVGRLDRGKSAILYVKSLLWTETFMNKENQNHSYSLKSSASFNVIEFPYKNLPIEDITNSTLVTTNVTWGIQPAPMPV
Chain of human αvβ3 integrin (P05106 27-718 limits assumed): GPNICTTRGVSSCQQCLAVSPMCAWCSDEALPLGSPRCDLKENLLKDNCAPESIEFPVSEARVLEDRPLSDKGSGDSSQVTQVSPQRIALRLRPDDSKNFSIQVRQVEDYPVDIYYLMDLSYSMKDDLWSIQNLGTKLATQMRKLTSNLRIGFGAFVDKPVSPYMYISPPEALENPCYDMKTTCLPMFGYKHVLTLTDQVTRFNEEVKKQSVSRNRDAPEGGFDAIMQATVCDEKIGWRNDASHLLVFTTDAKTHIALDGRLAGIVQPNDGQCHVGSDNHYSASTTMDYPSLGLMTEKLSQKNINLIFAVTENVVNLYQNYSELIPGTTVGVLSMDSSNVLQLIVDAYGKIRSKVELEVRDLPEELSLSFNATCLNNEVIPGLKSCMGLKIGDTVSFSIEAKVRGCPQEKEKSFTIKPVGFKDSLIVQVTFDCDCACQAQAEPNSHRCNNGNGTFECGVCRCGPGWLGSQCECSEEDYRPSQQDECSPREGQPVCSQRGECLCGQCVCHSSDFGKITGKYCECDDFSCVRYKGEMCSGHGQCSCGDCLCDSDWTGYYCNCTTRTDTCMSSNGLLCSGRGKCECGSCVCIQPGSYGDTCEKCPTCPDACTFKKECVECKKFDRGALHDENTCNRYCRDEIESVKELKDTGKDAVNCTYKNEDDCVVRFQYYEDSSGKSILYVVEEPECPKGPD

c(RGDW(7‐3Ptz^1(O))) [12 h]
selectivity towards the integrin αVβ3 (over α5β1) (human αvβ3 integrin; ratio of IC50 α5β1 / αVβ3): ≈ 110 fold

N#CC(C#N)=Cc1ccc2c(c1)Sc1cc3ccc1N2CCCCCC(=O)N[C@@H](CCCNC(=N)N)C(=O)NCC(=O)N[C@@H](CC(=O)O)C(=O)N[C@@H](C(N)=O)Cc1c[nH]c2c-3cccc12 [12 g, c(RGDw(7‐3Ptz^2(CH(CN)2))]
IC50 (human αvβ3 integrin): 961 ± 50 nM
IC50 (human α5β1 integrin): > 10 µM

CN1C(=O)[C@H](CC(=O)O)NC(=O)CNC(=O)[C@H](CCCNC(=N)N)NC(=O)CN2c3ccccc3Sc3cc(ccc32)-c2cccc3c(c[nH]c23)C[C@H]1C(N)=O [12 f, c(RGD(NMe)W(7‐3Ptz^1))]
IC50 (human αvβ3 integrin): 4520 ± 530 nM
IC50 (human α5β1 integrin): > 10 µM

N=C(N)NCCC[C@@H]1NC(=O)CCCCCN2c3ccccc3Sc3cc(ccc32)-c2cccc3c(c[nH]c23)C[C@@H](C(N)=O)NC(=O)[C@H](CC(=O)O)NC(=O)CNC1=O [12 a, c(RGDW(7‐3Ptz^2))]
IC50 (human αvβ3 integrin): 330 ± 40 nM

N=C(N)NCCC[C@@H]1NC(=O)CN2c3ccccc3Sc3cc(ccc32)-c2cccc3c(c[nH]c23)C[C@H](C(N)=O)NC(=O)[C@H](CC(=O)O)NC(=O)CNC1=O [12 d, c(RGDw(7‐3Ptz^1))]
IC50 (human αvβ3 integrin): 780 ± 170 nM
IC50 (human α5β1 integrin): > 10 µM

CN1C(=O)[C@H](CC(=O)O)NC(=O)CNC(=O)[C@H](CCCNC(=N)N)NC(=O)CCCCCN2c3ccccc3Sc3cc(ccc32)-c2cccc3c(c[nH]c23)C[C@H]1C(N)=O [12 e, c(RGD(NMe)W(7‐3Ptz^2))]
IC50 (human αvβ3 integrin): 6550 ± 760 nM
decrease in the affinities compared to their unmethylated analogues (human αvβ3 integrin; N-methyl tryptophan derivatives vs 12 a–c): 15–20 fold

N=C(N)NCCC[C@@H]1NC(=O)CN2c3ccccc3Sc3cc(ccc32)-c2cccc3c(c[nH]c23)C[C@@H](C(N)=O)NC(=O)[C@H](CC(=O)O)NC(=O)CNC1=O [12 c, c(RGDW(7‐3Ptz^1))]
IC50 (human αvβ3 integrin): 310 ± 80 nM
IC50 (human α5β1 integrin): 2.22 ± 1.04 µM

N=C(N)NCCC[C@@H]1NC(=O)CCCCCN2c3ccccc3Sc3cc(ccc32)-c2cccc3c(c[nH]c23)C[C@H](C(N)=O)NC(=O)[C@H](CC(=O)O)NC(=O)CNC1=O [12 b, c(RGDw(7‐3Ptz^2))]
IC50 (human αvβ3 integrin): 600 ± 110 nM
IC50 (human α5β1 integrin): 5.68 ± 1.28 µM
